Data as given in US20140348966A1, “GARCINIA BUCHANANII BAKER COMPOUNDS, COMPOSITIONS AND RELATED METHODS” (priority 2011, published 2014).
“And” between values parts separate entries of the source, which are not always exact repeats. Identical values can stand only once. Counter-ions that a name gives are not always drawn.

Experiments:
[1] = oxygen radical absorbance capacity (ORAC) assay; format: biochemical; details: isolated and reference compounds
Procedure: ORAC assay was carried out according to the method of Ou, G. and colleagues (1993) with some modifications. Trolox and FL were used as a standard and a fluorescent probe respectively. Free radicals were produced by AAPH to oxidize FL. Different dilutions of Trolox ([…]) and appropriate dilutions of tested sample were prepared with phosphate buffer (10 mM, pH 7.4). Trolox dilution ([…]) or sample solution were pipetted into a well of 96-well black microplate (VWR) and then FL (150 mL, 10 nM) was added. The reaction mixture was incubated at 37° C. for 30 min Afterward s, fluorescence was measured every 90 sec at the excitation of 485 nm and the emission of 520 nm using FLUOstar OPTIMA. After 3 cycles, AAPH ([…], 240 mM) was added quickly, and then the measurement was resumed and continued up to 90 min (60 cycles in total). The background signal was determined using the first 3 cycles. The ORAC values were calculated according to the method of Ou, G. and colleagues (1993) and expressed as Trolox equivalent (mmol TE/mmol). After freeze-drying in triplicate, MPLC fractions M1-M8 were analyzed in natural concentrations.

[2] = hydrogen peroxide scavenging assay; format: biochemical; details: isolated and reference compounds; read-out: H2O2 assay EC50
Procedure: Hydrogen peroxide scavenging assay was performed in accordance with the method of Ichikawa, M. and colleagues (2002). Sample solutions at appropriate concentration were prepared using phosphate buffer (100 mM, pH 6.0). Sample solution ([…]), phosphate buffer (30 mL, 100 mM, pH 6.0), and hydrogen peroxide solution (10 mL, 500 mM) were mixed in 96-well clear microplate (VWR, Ismaning, Germany). Then peroxidase (40 mL, 150 U/mL) and ABTS (40 mL, 0.1%) were added. The microplate was incubated at 37° C. for 15 min. The absorbance (A) of each well was measured at 414 nm with FLUOstar OPTIMA (BMG LABTECH, Offenburg, Germany). […] After freeze-drying three times 1 MPLC fractions M1-M8 were analyzed in natural concentrations.
E=[(A−Ablank)control−(A−Ablank)test]/(A−Ablank)control·100

[3] = system: guinea pig distal colon; experiment: fecal pellet propulsion motility assay in isolated distal colon (GIMM)
Procedure: Gastrointestinal Motility Assays: Segments (˜10 cm long) of distal colon were pinned on either end in a Sylgard-lined 50 mL organ bath, continuously perfused with oxygenated Krebs solution (rate: 10 mL min^−1) and maintained at temperatures between 36 and 37° C. Tissues were initially allowed to equilibrate for 30 mins in re-circulating Krebs solution. Colonic motility was studied using the Gastronintestinal Motility Monitoring system (GIMM; Med-Associates Inc., Saint Albans, Vt., USA), which included a digital video camera (Catamount Research and Development Inc, St Albans, Vt., USA) to film fecal pellet propulsion. Trials were separated by 5-min recovery periods between successive pellet runs. The GIMM system software calculated velocities by tracking pellets as they traversed colon segments. After initial equilibration, five pellet propulsion trials in vehicle solution were obtained to determine the basal velocity for each tissue preparation. To reduce variations between runs and experiments, the values obtained were used to generate a normalized basal velocity by dividing the values of the 4th-5th runs by the value of the 1st-2nd runs. Garcinia buchananii stem bark extract and test compounds dissolved in 100 mL of Krebs solution were superfused either into the organ bath or into the lumen of the colon using polyethylene tubing [PE 205; outside diameter 9.5 mm (BD-Worldwide, Sparks, Md., USA)]. The effects of extract and test compounds were evaluated by obtaining velocities of four trials taken at 5-min intervals (5-20 min) Normalized velocity data for these treatments were obtained by dividing the test velocities acquired by the average velocity of the five pellet propulsion runs performed in vehicle solution (runs 1-5, above). Normalized data became ratios without units, and were presented as a percent velocity of basal activity for each tissue. Velocities of pellet propulsion were also studied during washout of tissue with Krebs solution (after extract or test compound application) for 20 min
A segment (˜10-12 cm long) of distal colon was pinned on either end in a Sylgard-lined 50 mL organ bath being continuously perfused with oxygenated Krebs solution (rate: 10 mL min^−1) and maintained at temperatures between 36-37° C. Nail-polish-coated guinea-pig pellets similar in shape and size to the “native” colonic fecal pellets were used to determine propulsive velocities using the Gastrointestinal Motility Monitoring system (Med-Associates Inc., Saint Albans, Vt., USA) for filming pellet propulsion as described by Hoffman and others (2010). Velocity was calculated based on the time required for pellets to traverse 5-6 cm of the central colon segment ending 1 cm from the aboral end. Data collection started after 30 minutes of equilibration. A five-minute interval was used to allow equilibration of motor activity between successive pellet runs. Baseline velocities were measured for 20 minutes.
In intraluminal studies, the aqueous extract was prepared by suspending 2 g of G. buchananii bark powder in 100 mL Krebs, whereas 1 g G. buchananii bark powder prepared in the same manner was used for bath (serosal) applications. The extract-Krebs mixture was continuously stirred for 30 minutes and filtered using analytical filter paper (Schleicher and Schuell Blue Ribbon filter paper 589/3; 0.2 μm retention). Garcinia buchananii extract and test compounds were delivered to isolated colons in Krebs solution, and evaluated for effects on pellet propulsion during 20-25 minute time intervals. Intraluminal drug deliveries (350 μL min^−1 Krebs solution) were performed using polyethylene tubing (PE 205; outside diameter 9.5 mm) inserted ˜1.5 cm into the oral end of the segments. In bath deliveries, G. buchananii extract and test compounds were superfused directly into the organ bath. Studies involving PTLC fractions were performed using the organ bath delivery method only.

[4] = system: Wistar rats with high-lactose diet-induced diarrhea; experiment: high-lactose diet (HLD) induced diarrhea in rats; format: in vivo
Procedure: A high-lactose (35%) diet induced diarrhea in Wistar rats, which were then treated with either G. buchananii bark extract (0.1, 0.5, 1.0 and 5.0 g bark powder) or its anti-motility fractions isolated using preparative thin layer chromatography; termed PTLC1 (15 mg) and PTLC5 (3.8 mg) or loperamide (8.4 mg), each dissolved in 1 liter of tap water. Numerous parameters were measured in each condition including consistency, fluid and mucus content of feces, body weight, water and food consumption, urine production and bloating.
The study was conducted in accordance with the regulations of the University of Idaho Institutional Animal Care and Use Committee (IACUC). Sixty two, 10 week old Wistar rats were obtained from Harlan Animal Research Laboratory (Hayward Calif., USA). Rats were individually caged (23-24° C.; 12:12 h light-dark cycle) and quarantined for one week. Rats were fed a standard chow diet ad libitum (Animal Specialties, Hubbard, Oreg., USA) and had free access to water for four days prior to the inducement of diarrhea. A high-lactose diet (HLD) containing 35% lactose in place of starch (3.004 Kcal; Purina Mills; Richmond, Ind., USA) was fed to 52 rats. Diarrhea was induced within 24-48 hours after consuming the diet. Rats were monitored for changes in consistency of pellets and stool mass, fecal fluid and urine production (mass; g and volume; ml). Rats were considered diarrheic if they produced watery stools, soft, yellowish stools compared to normal, pliable, soft, well-formed pellets as previously described by other researchers.
Four days after introducing rats to a HLD, diarrheic rats were treated using varying doses of G. buchananii extract, its anti-motility fractions isolated using preparative thin layer chromatoghraphy (PTLC1 & PTLC5) and loperamide for standard comparison. Rats were maintained on a HLD during the entire treatment period.
Garcinia buchananii bark powder was prepared from stem barks collected from trees in their natural habitat in Karagwe, Tanzania, as described previously by Balemba, OB and colleagues, 2010. A sample can be found at the University of Idaho Stillinger herbarium (voucher #159918). 0.1 g, 0.5 g, 1.0 g and 5.0 g of G. buchananii bark powder were each suspended in 1 L of tap water, stirred for 30 minutes and filtered. The filtrate was then immediately used to treat rats against lactose-induced diarrhea.
Twenty nine rats on a HLD were randomly assigned and treated with varying doses of G. buchananii extract (0.1 g, 0.5 g, 1 g, and 5 g extract; n=6-10 rats per group). Eight rats were treated with PTLC1 or PTLC5 (each n=4) at a dose of 15 mg and 3.8 mg in 100 mL tap water, respectively. For control treatments, seven rats were treated with loperamide (8.4 mg/L tap water), eight rats were left untreated (HLD control) and ten rats received control standard chow diets (SD). Rats were treated for a total of four days, receiving freshly made drugs every two days.
We studied the impact of a HLD and all the treatments on the consistency, form and appearance of feces. Body weight, food and water intake were measured every two days for the entire period. Diarrheic rats treated with G. buchananii (0.1 g/l, 1.0 g/l) and loperamide were used to study fecal fluid content, stool mass and urine production compared with untreated rats on a HLD and SD control diets (n=3-5). To achieve this, pellets/stools and urine were allowed to drop on non-leaking, polyester plastic mats spread in metal trays placed beneath wired cages housing rats. Pellets/stools and urine were collected every three hours, for 24 hours, for a 12-day period. Disposable polyethylene transfer pipettes (5.5 mL) were used to collect urine. Pellets/stools were collected by using custom-made pieces of Inkjet transparencies. The samples were stored in disposable, polypropylene containers (100 mL) tightly capped to avoid loss of moisture due to vaporization. […]

[5] = bath (serosal) application, 20 min, extract 1 g/100 mL Krebs, PTLC1 15 mg, PTLC5 3.8 mg/100 mL, RS-56812 50 nmol/L, cisapride 100 nmol/L, CJ-033466 300 nmol/L, granisetron 1 μmol/L, ondansetron 0.5 μmol/L, GR-113808 5 μmol/L
[6] = intraluminal delivery, 5 min, extract 2 g bark powder/100 mL Krebs, 5-HT 0.5 μmol/L, RS-56812 50 nmol/L, cisapride 100 nmol/L, CJ-033466 300 nmol/L, GR-113808 5 μM
[7] = intraluminal delivery, 15 min, extract 2 g bark powder/100 mL Krebs, drug concentrations as at 5 min
[8] = intraluminal delivery, 20 min, extract 2 g bark powder/100 mL Krebs, drug concentrations as at 5 min
[9] = HLD rats, PTLC1 15 mg, PTLC5 3.8 mg in 100 mL tap water, loperamide 8.4 mg/L, after 24 hrs to the 4th day
[10] = HLD rats, loperamide 8.4 mg/L, PTLC1 15 mg/100 mL, PTLC5 3.8 mg/100 mL

SMILES	pellet propulsion, percent of normalized baseline pellet velocity [3, 5]	pellet propulsion, percent of normalized baseline pellet velocity [3, 6] [%]	pellet propulsion, percent of normalized baseline pellet velocity [3, 7] [%]	pellet propulsion, percent of normalized baseline pellet velocity [3, 8] [%]	further results
O=C1c2c(O)cc(O)cc2O[C@H](c2ccc(O)c(O)c2)[C@H]1O [Compound 6, (+)-(2R,3R)-Taxifolin]					ORAC assay [1]: 7.63 μmol TE/μmol; EC50 [2]: 11.3 µM
Cc1cn2c(N)c(Cl)cc(C(=O)NCC3CCN(CC(C)C)CC3)c2n1 [CJ-033466]	102.8±6.5%	132.7 ± 7.1	112.1 ± 6.7	116.6 ± 5.6	
Cn1cc(C(=O)C(=O)NC2CN3CCC2CC3)c2ccccc21 (stereo not shown) [RS-56812]	103.3±4.7%	119.7 ± 5.2	119.6 ± 5.4	126.7 ± 9.2	
Cc1nccn1CC1CCc2c(c3ccccc3n2C)C1=O (stereo not shown) [ondansetron, ondansetron hydrochloride]	111.3±9.8%				
COc1cc(N)c(Cl)cc1C(=O)NC1CCN(CCCOc2ccc(F)cc2)CC1OC (stereo not shown) [cisapride, Cisapride]	85.0±5.5% and 85.0±5.9%	115.6 ± 4.9	109.6 ± 9.3	122.0 ± 8.2	inhibition of pellet propulsion ([3]; serosal (bath) application, 20 min, extract 1 g, PTLC1 15 mg, PTLC5 3.8 mg per 100 mL Krebs, cisapride 100 nmol/L, RS-56812 50 nmol/L): 15%
NCCc1c[nH]c2ccc(O)cc12 [Compound 5-HT, Serotonin hydrochloride]		118.3 ± 16.2	117.6 ± 13.5	114.3 ± 11.9	
Cn1cc(C(=O)OCC2CCN(CCNS(C)(=O)=O)CC2)c2ccccc21 [GR-113808]	did not alter pellet propulsion	109.3 ± 6.1	93.2 ± 3.6	91.7 ± 3.1	inhibition of pellet propulsion ([3]; intraluminal, after 20 minutes, extract 2 g/100 mL Krebs, granisetron 2 μM, GR-113808 5 μM): 10%
CN1C2CCCC1CC(NC(=O)c1nn(C)c3ccccc13)C2.Cl (stereo not shown) [granisetron, granisetron hydrochloride]	101.4±7.0%	99.3 ± 4.2	92.4 ± 1.4	86.5 ± 3.6	
CN(C)C(=O)C(CCN1CCC(O)(c2ccc(Cl)cc2)CC1)(c1ccccc1)c1ccccc1 [loperamide]					intestinal bloating / cecum distension ([4]; HLD rats, all doses): reduced cecum distension; cecum maximum diameter ([4]; HLD rats, loperamide 8.4 mg/L): 2.0+/−0.2 cm; fecal fluid content ([4]; HLD rats, loperamide 8.4 mg/L): 43.8±6.5%; Form of stool: Hardened normal pellets [4, 9]: ++++++; Form of stool: Loose stool with structural form of pellet [4, 9]: −; Form of stool: Loose stools + mucous (non-structural stool) [4, 9]: −; Form of stool: Soft formed pellets [4, 9]: −; Form of stool: Watery diarrhea + mucous (incontinence or profuse) [4, 9]: −; body weight change [4, 10]: -1.33 ± 0.64 g; food consumption [4, 10]: 28.50 ± 3.58 g; water (fluid) consumption [4, 10]: 43.96 ± 7.66 mL; reversal of weight loss versus untreated HLD rats ([4]; loperamide 8.4 mg/L, not significant): 1.78 g
